Assay: Relaxivity determinations (T1 and T2 relaxation times, Bruker Minispec mq60)
Assay type: physicochemical
Conditions: in PBS, 0.25-1 mM Fe chelate, 60 MHz, 40° C.; gradient of 1/T1 vs Fe chelate concentration
Experimental: A stock solution having a concentration of 1 mM of the contrast enhancement agent was prepared in phosphate buffered saline (PBS) and the iron concentration was verified by elemental analysis. Separate 0.75 mM, 0.50 mM and 0.25 mM samples were prepared from the stock by dilution in PBS and the T1 and T2 relaxations times were recorded in triplicate for each using sample on a Bruker Minispec mq60 instrument (60 MHz, 40° C.). The relaxivities (r1 and r2) were obtained as the gradient of 1/Tx (x=1,2) plotted against Fe chelate concentration following linear least squares regression analysis. Data for contrast enhancement agents having structures III, IV, V, VI, VII, and VII, and a non-hydroxylated control contrast enhancement agent.

| Substance | r1 relaxivity [mM⁻¹ s⁻¹] |
| --- | --- |
| FeHBED(Me)2(OH)2 [III] | 0.9 |
| FeHBED(OH')2 [VII] | 1.0 |
| FeHBED(OH)2 [IV] | 0.8 |
| FeHBED(OH) [VI] | 1.1 |

— patent US8378134B2, “Hydroxylated contrast enhancement agents” (General Electric Company, priority 2009, dated 2013)
